Laboratory results from patent US20160220710A1, “COMPOSITIONS AND METHODS FOR DELIVERING PHARMACEUTICAL AGENTS” (THE REGENTS OF THE UNIVERSITY OF MICHIGAN, priority 2015, published 2016).
Read-outs that look alike come from different tables or passages of the source.

Tests used:
[1] = test system: RAW 264.7 cells; assay: Cell viability assay (XTT assay); format: cell-based, murine; settings: 24 h
Protocol: Cells were plated in triplicate wells at a density of 5×10^3 per well in 96-well plates in DMEM with 5% FBS and allowed to adhere overnight. Soluble CFZ (Stock solution 5 mM in DMSO) or CLDIs were added (0.25, 0.5, 1, 2, 4, 10, 20, 40 and 80 μM final concentrations) to cells and incubated (37° C.) for 24 h. XTT assay (Roche, UK) was carried out according to the manufacturer's instructions with absorbance measured at 450 nm and 690 nm using a Synergy-2 plate reader (Biotek). The cell viability percentage was calculated by comparing absorbance of CFZ and CLDI-treated cells to control (untreated) cells.

[2] = test system: caspase-3 and PARP cleavage; assay: Western blot of caspase 3, cleaved caspase 3 and cleaved PARP; format: cell-based, murine; settings: 4 and 10 μM, 24 h
[3] = test system: IL-1RA; assay: IL-1RA ELISA; format: cell-based, murine; settings: RAW 264.7 cells, 24 h
Protocol: (§1) The murine macrophage cell line RAW 264.7 was purchased from ATCC (Manassas, Va.) and maintained in DMEM (Life Technologies, Carlsbad, Calif.) supplemented with 10% FBS. Soluble CFZ or isolated CLDIs were added at various concentrations in DMEM with 5% FBS to 6-well plates containing 4×10^5 cells/well and incubated (24 h at 37° C. and 5% CO2). Culture supernatants were harvested at 24 h, centrifuged (1500×g for 5 min), and stored (−20° C.) in frozen aliquots prior to analysis. For experiments involving TLR stimulation, cells were washed twice with pre-warmed DPBS to remove extracellular, non-phagocytosed CLDIs or CFZ, and then the cells were serum-starved for 18 h in DMEM. Supernatants were collected from unstimulated cells and cells stimulated with 200 ng/ml Pam3 or 1 μg/ml LPS in DMEM.
The media of cells with or without 6 h TLR stimulation by Pam3 or LPS was harvested, and TNFα and IL-1RA levels were measured by ELISA (Duoset, R&D Systems, Minneapolis, Minn.) in duplicate wells according to the manufacturer's instructions. The cytokine concentrations were expressed as picogram per milligram of cell lysate. Experiments were repeated three times and values are expressed as the mean±SD.

[4] = test system: TLR2, TLR4, TLR9 and MyD88; assay: Western blot of TLR2, TLR4, TLR9 and MyD88 in RAW 264.7 cells; format: cell-based, murine; settings: 24 h incubation
Protocol: as §1

[5] = test system: caspase 1, IL-1β, TNFα, IL-1RA; assay: Inflammasome proteins and cytokines in organs of CFZ-treated mice; format: in vivo
Protocol: Clofazimine (CFZ, Sigma-Aldrich, C8895) was prepared in sesame oil (Shirakiku, Japan, or Roland, China) and Powdered Lab Diet 5001 (PMI International, Inc., St. […] Baik et al., 2011, supra). Control mice were fed with the same diet without CFZ. The animal protocol was approved by the University of Michigan's Animal Care and Use Committee in accordance with the National Institutes of Health guidelines (UCUCA #PRO0005111). Mouse Bronchoalveolar Lavage (BAL) Harvest and Isolation of Alveolar Macrophages, Immunohistochemistry and Imaging, SDS-PAGE and Western Blot, Cytokine Measurements

[6] = test system: alveolar macrophages; set-up: species or system mice; settings: mouse, in vivo, 6 weeks
Protocol: Clofazimine (CFZ, Sigma-Aldrich, C8895) was prepared in sesame oil (Shirakiku, Japan, or Roland, China) and Powdered Lab Diet 5001 (PMI International, Inc., St. Louis, Mo.) and orally administrated to Wild-type (WT) C57BL/6 mice or IL-1RA^−/− (4-5 week old, Jackson Laboratory, Bar Harbor, Me.) for up to 8 weeks ad libitum as previously described (Baik et al., 2013, supra; Baik et al., 2011, supra). Control mice were fed with the same diet without CFZ. The animal protocol was approved by the University of Michigan's Animal Care and Use Committee in accordance with the National Institutes of Health guidelines (UCUCA #PRO0005111).
PBS/LPS-instilled CFZ- or control mice were euthanized by exsanguination while deeply anesthetized with an intraperitoneal injection of ketamine/xylazine. The trachea was surgically exposed and cannulated with an 18 G needle and the lungs were lavaged by instilling 1 ml DPBS (Life Technologies) containing 0.5 mM EDTA (Sigma). The retrieved BAL was then centrifuged (10 min at 400×g, 4° C.), and the supernatant was frozen (−80° C.), while the cell pellets were resuspended in 1 ml RPMI 1640 media (Life Technologies). To count total cells, the cells were stained with Trypan blue and counted using a hemocytometer. […]

[7] = mice; cited from earlier work
[8] = 2 weeks of oral drug administration

CC(C)/N=c1\cc2n(-c3ccc(Cl)cc3)c3ccccc3nc-2cc1Nc1ccc(Cl)cc1 [CFZ, 3-(p-chloroanilino)-10-(p-chlorophenyl)-2, 10-dihydro-2-isopropyliminophenazine]
cell viability ([1]; 2 μM): 61%
cell viability ([1]; 10 μM): 20%
PARP cleavage [2]: increased PARP cleavage
IL-1RA secretion [3]: did not affect IL-1RA secretion
TLR2 and TLR4 expression [4]: upregulated TLR2 and TLR4 expression
TNFα expression in organs ([5]; 2 and 8 weeks, except liver at 2 weeks): unchanged by CFZ at both 2 and 8 weeks
cleavage of hepatic caspase 1 and IL-1β ([5]; 2 weeks of CFZ): only moderate cleavage of hepatic caspase 1 and IL-1β
IL-1RA in the liver [5, 8]: did not cause significant IL-1RA change in the liver
spleen and lung IL-1RA levels [5, 8]: slightly increased
IL-1RA levels in the kidney ([5]; 8 weeks): unchanged
hepatic caspase 1 cleavage and IL-1β maturation ([5]; 8 weeks of CFZ): significantly reduced
IL-1RA expression in liver, spleen and lung ([5]; 8 weeks of oral administration): major upregulation of IL-1RA expression
IL-1β levels in the spleen, lung and kidney ([5]; mouse, in vivo): did not change
CLDI+ alveolar macrophages ([6]; C57BL/6 (wild-type)): 65%
CLDI+ alveolar macrophages ([6]; IL-1RA−/−): 60%
pharmacokinetic half-life t1/2 [7]: ~170 h
